Experiments:
NRS144 strain = test: MIC of the inducer CBAP; type: cell-based, Staphylococcus aureus
[1] = system: modified bla operons (pCN52RI, pCN52RI-venus, pCN52RI-mCherry); test: Induction of fluorescent reporters of the bla operon by CBAP; type: cell-based, S. aureus NRS144
Source text: FIG. 4. Comparison of the fluorescence intensity produced by S. aureus NRS144 strains harboring pCN52RI, pCN52RI-venus and pCN52RI-mCherry. Each fluorescent protein was induced by the β-lactam antibiotic CBAP. The ratios of fluorescence in the presence of CBAP to that in the absence of it were 3, 10 and 5 for GFP, Venus, and mCherry, respectively. Data were derived from four independent assays.
Live-Cell Fluorescent Assay in Discovery and Mechanism of Action. We conceived of fluorescent constructs in the bla operon, for the purpose of screening (FIG. 2a). We removed the gene for the β-lactamase (blaZ) and put in its place individually the genes for the Green Fluorescent Protein (GFP), Venus (a yellow-fluorescent protein) or mCherry (a red-fluorescent protein) in the template plasmid pCN52. The three plasmids were named pCN52RI, pCN52RI-Venus and pCN52RI-mCherry, respectively. The genes for the fluorescent proteins were transcribed under the promoter of the blaZ gene and were regulated by the proteins BlaR and BlaI, as is the case for the wild-type bla operon.
We transformed separately S. aureus NRS144—a laboratory strain that accepts a foreign gene and harbors neither the bla nor the mec operons—with each of these plasmids. […] When induced, the fluorescent protein is produced and is detected (akin to expression of the resistance genes blaZ or mecA in typical MSSA and MRSA). […] The transformed strains were grown in tryptic soy broth medium for overnight culture and strain maintenance and incubated in cation-adjusted Mueller-Hinton broth medium for inhibitor screening in a 96-well microplate format. The culture without CBAP addition was the negative control. In order to select a desirable reporter construct, we compared the intensity of the fluorescence produced from each construct at the wavelengths given in FIG. 2a using the Cytation-5 multi-mode microplate reader. Among the three constructs, pCN52RI-Venus produced the best fluorescence intensity and pCN52RI-mCherry was the second best (FIG. 4).
Construction of the fluorescent-reporter systems. […]

## 2-(2-carboxyphenyl)-benzoyl-6-aminopenicillanic acid [CBAP]
NRS144 strain
  minimal-inhibitory concentration (MIC): 64 µg/mL
[1]; GFP (pCN52RI)
  ratio of fluorescence in the presence of CBAP to that in the absence: 3
[1]; Venus (pCN52RI-venus)
  ratio of fluorescence in the presence of CBAP to that in the absence: 10
[1]; mCherry (pCN52RI-mCherry)
  ratio of fluorescence in the presence of CBAP to that in the absence: 5

— patent US20260284011A1, “COMPOUNDS FOR RESTORING SUSCEPTIBILITY TO BETA-LACTAM ANTIBIOTICS” (UNIVERSITY OF NOTRE DAME DU LAC, priority 2023, published 2026)
